What all share (format): biochemical
One experiment deals with T1, MCH-2 (Homo sapiens, UniProt P55212).
T1 sequence (P55212 24-179 limits assumed): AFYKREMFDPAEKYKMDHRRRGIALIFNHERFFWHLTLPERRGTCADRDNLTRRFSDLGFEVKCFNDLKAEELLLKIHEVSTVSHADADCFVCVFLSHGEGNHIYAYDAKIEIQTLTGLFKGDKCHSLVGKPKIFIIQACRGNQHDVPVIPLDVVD
T1 sequence (P55212 194-293 limits assumed): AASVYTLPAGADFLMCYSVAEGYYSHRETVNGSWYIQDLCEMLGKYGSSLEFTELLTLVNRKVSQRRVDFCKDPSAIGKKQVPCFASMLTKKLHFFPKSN
Briefly: Dissociation constant Ki and irreversible rate constant k3 for irreversible inhibitors (Mch2).

In a further experiment the target is T2, CPP32 (Homo sapiens, UniProt P42574).
T2 sequence (P42574 29-175 limits assumed): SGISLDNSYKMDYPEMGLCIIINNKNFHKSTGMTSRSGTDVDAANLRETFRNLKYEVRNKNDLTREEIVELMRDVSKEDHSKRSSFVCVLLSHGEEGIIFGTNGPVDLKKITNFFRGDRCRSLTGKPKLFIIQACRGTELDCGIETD
T2 sequence (P42574 176-277 limits assumed): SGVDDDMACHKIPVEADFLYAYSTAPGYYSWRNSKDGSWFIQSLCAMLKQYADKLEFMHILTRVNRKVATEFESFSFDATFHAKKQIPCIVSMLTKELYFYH
Briefly: Dissociation constant Ki and irreversible rate constant k3 for irreversible inhibitors (CPP32).

A further experiment concerns the target T3, mICE (Mus musculus, UniProt P29452).
T3 sequence (P29452 123-296 limits assumed): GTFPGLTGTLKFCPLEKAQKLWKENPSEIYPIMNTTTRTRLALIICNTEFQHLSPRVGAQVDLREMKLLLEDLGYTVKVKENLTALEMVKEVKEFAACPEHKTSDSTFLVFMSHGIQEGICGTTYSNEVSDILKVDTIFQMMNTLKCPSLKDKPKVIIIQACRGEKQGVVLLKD
T3 sequence (P29452 315-402 limits assumed): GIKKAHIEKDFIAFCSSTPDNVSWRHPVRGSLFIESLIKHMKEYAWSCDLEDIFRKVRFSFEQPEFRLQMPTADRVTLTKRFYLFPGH
Put plainly: Dissociation constant Ki and irreversible rate constant k3 for irreversible inhibitors (ICE).

The target of the next experiment is MCH-5 (Homo sapiens, UniProt Q14790). Briefly: Dissociation constant Ki and irreversible rate constant k3 for irreversible inhibitors (Mch5).
MCH-5, sequence (Q14790 217-374 limits assumed, species assumed): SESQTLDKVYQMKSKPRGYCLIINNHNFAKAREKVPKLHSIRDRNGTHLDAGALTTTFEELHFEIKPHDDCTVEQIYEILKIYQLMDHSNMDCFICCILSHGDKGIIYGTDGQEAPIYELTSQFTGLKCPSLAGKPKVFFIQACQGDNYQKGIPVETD
MCH-5, sequence (Q14790 385-479 limits assumed, species assumed): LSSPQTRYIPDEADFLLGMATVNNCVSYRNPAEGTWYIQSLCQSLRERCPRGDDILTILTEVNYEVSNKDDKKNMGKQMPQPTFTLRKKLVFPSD
Where [1] appears, read: continuous assay 60 min, reaction initiated by adding enzyme to substrate-inhibitor mixture.

The record followed here is patent US7183260B2, “C-terminal modified oxamyl dipeptides as inhibitors of the ICE/ced-3 family of cysteine proteases” (Idun Pharmaceuticals, Inc., priority 1998, dated 2007).

Read-outs that look alike come from different tables or passages of the source.

For the compound `C[C@H](NC(=O)C(=O)Nc1ccccc1F)C(=O)N[C@@H](CC(=O)O)C(=O)COc1c(F)c(F)cc(F)c1F` [Example 66], at MCH-2 (setting [1]), the Ki stood at 19 nM and the “MCH-2 k3/Ki” value is 212,000 moles^−1 seconds^−1. Also, at CPP32 (setting [1]), the “CPP32 k3/Ki” value is 478,000 moles^−1 seconds^−1 and the Ki stood at 28 nM. Besides, on mICE (setting [1]), the Ki worked out at 25 nM and the “mICE k3/Ki” value is reported as 339,000 moles^−1 seconds^−1. Further, on MCH-5 (setting [1]), the Ki amounted to 13 nM and the “MCH-5 k3/Ki” value is recorded as 170,000 moles^−1 seconds^−1.

On to `CC(C)[C@H](NC(=O)C(=O)Nc1cc(C(C)(C)C)ccc1C(C)(C)C)C(=O)N[C@@H](CC(=O)O)C(=O)COc1c(F)c(F)cc(F)c1F` [Example 109], for which, on MCH-2 (setting [1]), the Ki was determined as 232 nM and the “MCH-2 k3/Ki” value is 8,230 moles^−1 seconds^−1. Moreover, at CPP32 (setting [1]), the “CPP32 k3/Ki” value is given as 70,600 moles^−1 seconds^−1 and the Ki stood at 193 nM. Also, on mICE (setting [1]), the Ki turned out to be 25 nM and the “mICE k3/Ki” value was 767,000 moles^−1 seconds^−1. For the same compound, on MCH-5 (setting [1]), the Ki came out at 34 nM and the “MCH-5 k3/Ki” value is 51,300 moles^−1 seconds^−1.

As to `CC(C)[C@H](NC(=O)C(=O)Nc1c(F)c(F)nc(F)c1F)C(=O)N[C@@H](CC(=O)O)C(=O)COc1c(F)c(F)cc(F)c1F` [Example 102], on MCH-2 (setting [1]), the Ki came to 22 nM and the “MCH-2 k3/Ki” value is recorded as 170,000 moles^−1 seconds^−1. Also, at CPP32 (setting [1]), the “CPP32 k3/Ki” value is listed as 153,000 moles^−1 seconds^−1 and the Ki was determined as 127 nM. In addition, at mICE (setting [1]), the Ki was determined as 14 nM and the “mICE k3/Ki” value was 1,220,000 moles^−1 seconds^−1. Besides, at MCH-5 (setting [1]), the Ki amounted to 10 nM and the “MCH-5 k3/Ki” value is reported as 389,000 moles^−1 seconds^−1.

On to `CC(C)[C@H](NC(=O)C(=O)Nc1cccc2ccccc12)C(=O)N[C@@H](CC(=O)O)C(=O)COP(=O)(c1ccccc1)c1ccccc1` [Example 11], for which the Ki at MCH-2 (setting [1]) is 11 nM; on CPP32 (setting [1]), 25 nM; on mICE (setting [1]), 5 nM; on MCH-5 (setting [1]), 1.3 nM.

As for `C[C@H](NC(=O)C(=O)Nc1cccc2c1CCCC2)C(=O)N[C@@H](CC(=O)O)C(=O)COC(=O)c1c(Cl)cccc1Cl` [Example 62], at MCH-2 (setting [1]), the Ki turned out to be 23 nM and the “MCH-2 k3/Ki” value is 126,000 moles^−1 seconds^−1. Moreover, at CPP32 (setting [1]), the “CPP32 k3/Ki” value is reported as 149,000 moles^−1 seconds^−1 and the Ki amounted to 101 nM. Further, on mICE (setting [1]), the Ki was 1020 nM and the “mICE k3/Ki” value is 16,900 moles^−1 seconds^−1. Moreover, on MCH-5 (setting [1]), the Ki came out at 90 nM and the “MCH-5 k3/Ki” value was 21,200 moles^−1 seconds^−1.

`C[C@H](NC(=O)C(=O)Nc1cccc2c1CCCC2)C(=O)N[C@@H](CC(=O)O)C(=O)COC(=O)c1c(Cl)cccc1Cl` [Example 49]: at MCH-2 (setting [1]), the Ki amounted to 10 nM and the “MCH-2 k3/Ki” value is listed as 264,000 moles^−1 seconds^−1. Further, on CPP32 (setting [1]), the “CPP32 k3/Ki” value is given as 260,000 moles^−1 seconds^−1 and the Ki is 43 nM. Also, on mICE (setting [1]), the Ki was 1.4 nM and the “mICE k3/Ki” value was 17,600,000 moles^−1 seconds^−1. Further, on MCH-5 (setting [1]), the Ki stood at 4 nM and the “MCH-5 k3/Ki” value was 1,920,000 moles^−1 seconds^−1.

Regarding `CC(C)[C@H](NC(=O)C(=O)Nc1cnccn1)C(=O)N[C@@H](CC(=O)O)C(=O)COc1c(F)c(F)cc(F)c1F` [Example 103], the Ki on MCH-2 (setting [1]) stood at 17 nM; at CPP32 (setting [1]), 60 nM; at mICE (setting [1]) it was 5.3 nM; at MCH-5 (setting [1]), 4.7 nM.

Consider `C[C@H](NC(=O)C(=O)Nc1ccccc1-c1ccccc1)C(=O)N[C@@H](CC(=O)O)C(=O)COc1ccccc1F` [Example 28], for which, on MCH-2 (setting [1]), the Ki was found to be 42 nM and the “MCH-2 k3/Ki” value is 35,000 moles^−1 seconds^−1. Also, on CPP32 (setting [1]), the “CPP32 k3/Ki” value was 55,600 moles^−1 seconds^−1 and the Ki came to 109 nM. Further, on mICE (setting [1]), the Ki is 46 nM and the “mICE k3/Ki” value is 167,000 moles^−1 seconds^−1. At MCH-5 (setting [1]), the Ki is 5.8 nM and the “MCH-5 k3/Ki” value is given as 37,800 moles^−1 seconds^−1.

As for `C[C@H](NC(=O)C(=O)Nc1ccccc1C(C)(C)C)C(=O)N[C@@H](CC(=O)O)C(=O)COC(=O)c1c(Cl)cccc1Cl` [Example 37], on MCH-2 (setting [1]), the Ki worked out at 13 nM and the “MCH-2 k3/Ki” value is 191,000 moles^−1 seconds^−1. Moreover, at CPP32 (setting [1]), the “CPP32 k3/Ki” value is reported as 142,000 moles^−1 seconds^−1 and the Ki amounted to 78 nM. Further, at mICE (setting [1]), the Ki came to 465 nM and the “mICE k3/Ki” value is 43,300 moles^−1 seconds^−1. Moreover, at MCH-5 (setting [1]), the Ki is 83 nM and the “MCH-5 k3/Ki” value is recorded as 39,100 moles^−1 seconds^−1.

Regarding `C[C@H](NC(=O)C(=O)NC12CC3CC(CC(C3)C1)C2)C(=O)N[C@@H](CC(=O)O)C(=O)COC(=O)c1c(Cl)cccc1Cl` [Example 54], on MCH-2, the Ki was 120 nM and the “MCH-2 k3/Ki” value is reported as 21,100 moles^−1 seconds^−1. On CPP32, the “CPP32 k3/Ki” value is 20,500 moles^−1 seconds^−1 and the Ki was 409 nM. Also, on mICE, the Ki amounted to 348 nM and the “mICE k3/Ki” value is on record as 46,000 moles^−1 seconds^−1. On MCH-5, the Ki came to 80 nM and the “MCH-5 k3/Ki” value was 18,700 moles^−1 seconds^−1.

On to `C[C@H](NC(=O)C(=O)Nc1cc(C(C)(C)C)ccc1C(C)(C)C)C(=O)N[C@@H](CC(=O)O)C(=O)COC(=O)c1c(Cl)cccc1Cl` [Example 60], for which, at MCH-2 (setting [1]), the Ki was found to be 49 nM and the “MCH-2 k3/Ki” value is 146,000 moles^−1 seconds^−1. On CPP32 (setting [1]), the “CPP32 k3/Ki” value is reported as 189,000 moles^−1 seconds^−1 and the Ki is 58 nM. Moreover, on mICE (setting [1]), the Ki is 26 nM and the “mICE k3/Ki” value is 289,000 moles^−1 seconds^−1. Moreover, at MCH-5 (setting [1]), the Ki came out at 14 nM and the “MCH-5 k3/Ki” value is on record as 306,000 moles^−1 seconds^−1.

With `C[C@H](NC(=O)C(=O)Nc1cccc2c1CCCC2)C(=O)N[C@@H](CC(=O)O)C(=O)COP(=O)(c1ccccc1)c1ccccc1` [Example 48], on MCH-2 (setting [1]), the Ki worked out at 22 nM and the “MCH-2 k3/Ki” value was 132,000 moles^−1 seconds^−1. On CPP32 (setting [1]), the “CPP32 k3/Ki” value was 139,000 moles^−1 seconds^−1 and the Ki is 69 nM. For the same compound, on mICE (setting [1]), the Ki was 11 nM and the “mICE k3/Ki” value is 905,000 moles^−1 seconds^−1. For the same compound, on MCH-5 (setting [1]), the Ki amounted to 4.1 nM and the “MCH-5 k3/Ki” value is on record as 1,150,000 moles^−1 seconds^−1.

Consider `C[C@H](NC(=O)C(=O)NC1CCCCC1)C(=O)N[C@@H](CC(=O)O)C(=O)COC(=O)c1c(Cl)cccc1Cl` [Example 55], for which, at MCH-2 (setting [1]), the Ki turned out to be 6.3 nM and the “MCH-2 k3/Ki” value was 655,000 moles^−1 seconds^−1. For the same compound, on CPP32 (setting [1]), the “CPP32 k3/Ki” value is given as 1,174,000 moles^−1 seconds^−1 and the Ki turned out to be 13 nM. Further, at mICE (setting [1]), the Ki was found to be 6.1 nM and the “mICE k3/Ki” value was 2,020,000 moles^−1 seconds^−1. Moreover, on MCH-5 (setting [1]), the Ki turned out to be 2.6 nM and the “MCH-5 k3/Ki” value is 2,140,000 moles^−1 seconds^−1.

Consider `CC(C)[C@H](NC(=O)C(=O)Nc1ccccc1Br)C(=O)N[C@@H](CC(=O)O)C(=O)COc1c(F)c(F)cc(F)c1F` [Example 106], for which, at MCH-2 (setting [1]), the Ki worked out at 19 nM and the “MCH-2 k3/Ki” value is reported as 230,000 moles^−1 seconds^−1. Moreover, at CPP32 (setting [1]), the “CPP32 k3/Ki” value is 276,000 moles^−1 seconds^−1 and the Ki is 63 nM. Moreover, on mICE (setting [1]), the Ki came to 9 nM and the “mICE k3/Ki” value is 1,080,000 moles^−1 seconds^−1. Moreover, on MCH-5 (setting [1]), the Ki came out at 3.4 nM and the “MCH-5 k3/Ki” value is listed as 1,305,000 moles^−1 seconds^−1.
